Patent US20120052130A1, “GPR 119 MODULATORS” (Pfizer Inc., priority 2009, published 2012)

Target: T1, human GPR119 (Homo sapiens, UniProt Q8TDV5)
T1 sequence (Q8TDV5 1-335): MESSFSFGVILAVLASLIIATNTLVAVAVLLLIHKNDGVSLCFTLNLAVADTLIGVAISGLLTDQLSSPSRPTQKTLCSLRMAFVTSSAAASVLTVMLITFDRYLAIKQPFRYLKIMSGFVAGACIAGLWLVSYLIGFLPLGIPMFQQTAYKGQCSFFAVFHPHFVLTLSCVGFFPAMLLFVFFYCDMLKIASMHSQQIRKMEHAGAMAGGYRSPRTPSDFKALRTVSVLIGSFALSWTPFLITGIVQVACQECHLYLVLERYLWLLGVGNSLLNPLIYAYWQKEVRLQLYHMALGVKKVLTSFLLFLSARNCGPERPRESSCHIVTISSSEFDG
Assay: β-lactamase reporter functional assay for GPR119 agonists (hGPR119 HEK293-CRE beta-lactamase cells)
Type: cell-based
Parameters: host or cells: hGPR119-HEK293-CRE-beta-lactamase cells
Conditions: hGPR119 HEK293-CRE beta-lactamase cells; each line is a separate determination; read-out: Human B-lactamase Functional EC50
Description: The assay for GPR119 agonists utilizes a cell-based (hGPR119HEK293-CRE beta-lactamase) reporter construct where agonist activation of human GPR119 is coupled to beta-lactamase production via a cyclic AMP response element (CRE). GPR119 activity is then measured utilizing a FRET-enabled beta-lactamase substrate, CCF4-AM (Live Blazer FRET-B/G Loading kit, Invitrogen cat #K1027). […] Fluorescence was measured on an EnVision fluorimetric plate reader, excitation 405 nm, emission 460 nm/535 nm. EC50 determinations were made from agonist-response curves analyzed with a curve fitting program using a 4-parameter logistic dose-response equation.

EC50: 64.7 nM
Structure (SMILES): Cc1c(O[C@@H]2[C@@H]3COC[C@H]2CN(C(=O)OC(C)C)C3)ncnc1N1CCc2cc(S(C)(=O)=O)ccc21 [Example 23, Isopropyl (9-syn)-9-({5-methyl-6-[5-(methylsulfonyl)-2,3-dihydro-1H-indol-1-yl]pyrimidin-4-yl}oxy)-3-oxa-7-azabicyclo[3.3.1]nonane-7-carboxylate]
